Laboratory results published in paper PMC3748743 (Analytical chemistry, 2013).

Target: BoNT/A (Clostridium botulinum, UniProt P0DPI1)
Type: biochemical

Sequence of BoNT/A (P0DPI1 whole entry, looked up): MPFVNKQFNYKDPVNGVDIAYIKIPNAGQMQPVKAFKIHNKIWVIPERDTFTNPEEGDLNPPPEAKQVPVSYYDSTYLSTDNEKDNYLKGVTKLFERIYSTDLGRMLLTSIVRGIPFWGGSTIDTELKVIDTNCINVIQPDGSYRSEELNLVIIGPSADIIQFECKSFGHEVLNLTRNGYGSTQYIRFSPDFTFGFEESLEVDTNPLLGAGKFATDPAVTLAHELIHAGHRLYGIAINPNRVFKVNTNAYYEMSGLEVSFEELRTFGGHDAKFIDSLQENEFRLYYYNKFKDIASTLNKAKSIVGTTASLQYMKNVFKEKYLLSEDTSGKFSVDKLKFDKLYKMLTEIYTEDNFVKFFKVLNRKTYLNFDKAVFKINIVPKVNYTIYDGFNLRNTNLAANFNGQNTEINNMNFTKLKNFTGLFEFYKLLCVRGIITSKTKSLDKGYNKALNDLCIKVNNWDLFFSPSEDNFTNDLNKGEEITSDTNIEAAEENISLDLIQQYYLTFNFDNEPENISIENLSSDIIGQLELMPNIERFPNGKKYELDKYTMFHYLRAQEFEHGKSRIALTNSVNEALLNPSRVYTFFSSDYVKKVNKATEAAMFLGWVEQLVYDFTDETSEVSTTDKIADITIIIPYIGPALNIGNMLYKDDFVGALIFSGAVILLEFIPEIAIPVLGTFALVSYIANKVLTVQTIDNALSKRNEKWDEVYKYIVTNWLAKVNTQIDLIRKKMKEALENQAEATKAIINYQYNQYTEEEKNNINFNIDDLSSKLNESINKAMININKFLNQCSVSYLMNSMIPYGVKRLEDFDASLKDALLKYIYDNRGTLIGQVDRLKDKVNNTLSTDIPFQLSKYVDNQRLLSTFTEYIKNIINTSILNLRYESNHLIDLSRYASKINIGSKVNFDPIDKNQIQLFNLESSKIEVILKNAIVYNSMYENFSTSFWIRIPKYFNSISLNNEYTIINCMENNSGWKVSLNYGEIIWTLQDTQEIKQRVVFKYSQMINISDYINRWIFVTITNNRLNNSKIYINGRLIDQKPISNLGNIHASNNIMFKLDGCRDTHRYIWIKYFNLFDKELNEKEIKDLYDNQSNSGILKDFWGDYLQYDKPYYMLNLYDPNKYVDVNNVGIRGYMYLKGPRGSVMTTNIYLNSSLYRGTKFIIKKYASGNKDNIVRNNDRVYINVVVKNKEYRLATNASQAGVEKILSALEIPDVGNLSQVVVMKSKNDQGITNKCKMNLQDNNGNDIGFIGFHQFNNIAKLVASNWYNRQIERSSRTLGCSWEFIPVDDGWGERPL

TPEN
Effect on fluorescent signal of BoNT/A ALISSA: significant suppression of fluorescent signal
